Test results as given in patent US7820640B2, “Methods for treating hearing loss” (Sound Pharmaceuticals Incorporated, priority 2002, dated 2010).
Values joined by “and” are separate entries in the source; they are usually repeats but may differ in a detail not shown here. Equal entries are not always repeated.

Assays:
Assay type in all cases: in vivo, rat
[1] = system: Fisher-344 rats exposed to 110-115 dB noise at 4-16 kHz for 4 hours; test: ABR threshold shift after a single noise exposure (Example 1); conditions: for difference in ABR threshold shifts between control and treated rats: 4-16 kHz click stimulus, ebselen 16 mg/kg
Method: (§1) Noise exposure paradigm: 8-week old female Fisher-344 rats were exposed to 110-115 dB noise at 4-16 kHz for 4 hours.
Physiologic analyses: The auditory evoked brainstem response (ABR) was used to assess hearing in each ear in each animal before and after exposure to noise using equipment from Intelligent Hearings System. ABR generated with a click stimulus (broad spectrum stimulus, 4-16 kHz) was measured in 5 dB intervals. Animals were re-evaluated evaluated at 1 day, 1 week, 2 weeks, and 3 weeks post noise exposure. ABR changes measured 1 day post noise exposure are considered to represent a temporary threshold shift (TTS); ABR changes measured 3 weeks post noise exposure are considered to represent a permanent threshold shift (PTS).
(§2) Dosing of Otoprotectants: Ebselen was dissolved at 4 mg/mL in 10% DMSO and administered to rats at 16 mg/kg. N-acetyl-cysteine was dissolved at 100 mg/mL in saline and was administered to rats at 325 mg/kg. About 0.5 ml of ebselen solution or N-acetyl-cysteine solution was injected intra-peritoneally or delivered by oral gavage twice daily the day prior to, the day of, and the day following exposure to noise. Control animals were dosed on an identical schedule with vehicle (10% DMSO) only.
Statistical analysis: All experiments were performed with four rats per study group, and measuring each ear independently before and after noise exposure. Data was collected in blinded studies. Statistical analyses were performed by analysis of variance (ANOVA) between study groups.

[2] = system: outer hair cells in cochlea of noise-exposed Fisher-344 rats; test: Cochlear hair cell counts after noise exposure (Example 1); conditions: for physiologic protection from noise-induced hearing loss and hair cell loss: Example 1 conclusion, ebselen 16 mg/kg, N-acetyl-cysteine 325 mg/kg
Method: as §1
Morphologic analyses: Hair cell counts in cochlea from test animals following noise exposure and physiologic evaluation using ABR were determined by carefully dissecting cochlea to obtain inner ear sensory epithelia. The tissues were stained with fluorescein-labeled phalloidin (specific for actin filaments, which are abundant in hair cells) and 4,6-diamidino-2-phenylindole (DAPI; specific for the DNA in the nucleus in cells). Samples were then mounted on microscope slides and viewed with epifluorescence to determine the extent of hair cell loss and retention. The correlation between physiologic data (ABR) and morphological data (hair cell counts) allows for confirmation of the protective effects of otoprotectants of the invention.
as §2

[3] = system: Fisher-344 rats exposed to 110-115 dB noise at 4-16 kHz for 4 hours; test: ABR permanent threshold shift, ebselen and allopurinol alone or combined (Example 2); conditions: for difference in ABR threshold shifts between control and treated rats: 16 mg/kg individually, combination 8 mg/kg each, highly significant = p<0.01; for protection from both temporary and permanent thresholds shifts: ABR, rats exposed to noise, alone or in combination; for reductions in PTS compared with controls: three weeks after noise exposure, intra-peritoneal injection at 16 mg/kg individually
Method: Noise exposure paradigm: 8-10 week old female Fisher-344 rats were exposed to 110-115 dB noise at 4-16 kHz for 4 hours.
Physiologic analyses: ABR generated with a click stimulus (broad spectrum stimulus, 4-16 kHz), and with tone stimuli at frequencies of 4 kHz, 8 kHz, 12 kHz, and 16 kHz, was measured in 5 dB intervals, as described in EXAMPLE 1. Animals were tested before and at 3 weeks post noise exposure to assess PTS.
Dosing of compounds: Ebselen was dissolved at 4 mg/ml in 10% DMSO and allopurinol was dissolved at 4 mg/ml in water. Ebselen and allopurinol were administered to rats at an individual dose of 16 mg/kg or at a combined dose of 8 mg/kg each. About 0.5 ml of ebselen solution, allopurinol solution, or ebselen/allopurinol solution was injected intra-peritoneally or delivered by oral gavage twice daily the day prior to, the day of, and the day following exposure to noise. Control animals were dosed on an identical schedule with vehicle only.
(§3) Statistical analysis: All experiments were performed with four rats per study group, and measuring each ear independently before and after noise exposure. Data was collected in blinded studies. Statistical analyses were performed by ANOVA between study groups.

[4] = system: outer hair cells in cochlea of repeatedly noise-exposed Fisher-344 rats; test: Cochlear hair cell counts after repeated noise exposure (Example 3); conditions: 16 mg/kg
Method: (§4) Noise exposure paradigm: 8-week old female Fisher-344 rats were exposed to 110 dB noise at 4-16 kHz for 4 hours two times three weeks apart.
Morphologic analyses: Hair cell counts in cochlea from test animals following noise exposure and physiologic evaluation using ABR were determined as described in EXAMPLE 1.
(§5) Dosing of Ebselen: Ebselen was dissolved at 4 mg/mL in 10% DMSO and administered to rats at a dose of 16 mg/kg. About 0.5 ml of ebselen solution was injected intra-peritoneally or delivered by oral gavage twice daily the day prior to, the day of, and the day following each exposure to noise. Control animals were dosed on an identical schedule with vehicle only.

[5] = system: Fisher-344 rats exposed to 110 dB noise at 4-16 kHz for 4 hours two times three weeks apart; test: ABR threshold shift after repeated noise exposure (Example 3); conditions: 16 mg/kg; for difference in ABR threshold shifts between control and treated rats: 3 weeks after two exposures to 110 dB noise
Method: as §4
Physiologic analyses: ABR generated with tone stimuli at frequencies of 4 kHz, 8 kHz, 12 kHz, and 16 kHz, was measured in 5 dB intervals, as described in EXAMPLE 1. […]
as §5, §3

[6] = 1 week post noise, N-acetyl-cysteine 325 mg/kg, highly significant = p<0.01, significant = p<0.05
[7] = 2 weeks post noise, N-acetyl-cysteine 325 mg/kg, highly significant = p<0.01, significant = p<0.05
[8] = 3 weeks post noise, N-acetyl-cysteine 325 mg/kg, significant = p<0.05
[9] = 1 day post noise (115 dB, 4-16 kHz, 4 h), N-acetyl-cysteine 325 mg/kg twice daily, highly significant = p<0.01, significant = p<0.05
[10] = 4 kHz stimulus, 3 weeks after noise
[11] = click stimulus, 3 weeks after 115 dB, 4-16 kHz noise for 4 h

Compound: CC(=O)N[C@@H](CS)C(=O)O [N-acetyl-cysteine, N-acetyl-L-Cysteine]
- difference in ABR threshold shifts between control and treated rats [1, 6]: significant
- difference in ABR threshold shifts between control and treated rats [1, 7]: significant
- difference in ABR threshold shifts between control and treated rats [1, 8]: significant
- difference in ABR threshold shifts between control and treated rats [1, 9]: significant
- reduction in TTS ([1]; click stimulus, all time points after noise exposure, 325 mg/kg): significant reduction
- physiologic protection from noise-induced hearing loss and hair cell loss [2]: physiologic protection

Compound: Oc1ncnc2[nH]ncc12 [allopurinol, 4-hydroxypyrazolo[3,4-d]pyrimidine]
- difference in ABR threshold shifts between control and treated rats [3, 10]: highly significant
- difference in ABR threshold shifts between control and treated rats ([3]; 16 kHz stimulus, 3 weeks after noise): highly significant
- protection from both temporary and permanent thresholds shifts [3]: significant protection
- difference in ABR threshold shifts between control and treated rats [3, 11]: highly significant
- protection from noise-induced hearing loss and hair cell loss ([3]; statement in Example 1 referring to EXAMPLE 2): provide protection
- reductions in PTS compared with controls [3]: significant reductions

Compound: O=c1c2ccccc2[se]n1-c1ccccc1 [ebselen, 2-phenyl-1,2-benzoisoselenazol-3(2H)-one]
- difference in ABR threshold shifts between control and treated rats [3, 10]: highly significant
- protection from both temporary and permanent thresholds shifts [3]: significant protection
- difference in ABR threshold shifts between control and treated rats [3, 11]: highly significant
- reductions in PTS compared with controls [3]: significant reductions
- difference in ABR threshold shifts between control and treated rats [1, 6]: highly significant
- difference in ABR threshold shifts between control and treated rats [1, 7]: highly significant
- difference in ABR threshold shifts between control and treated rats [1, 8]: significant
- difference in ABR threshold shifts between control and treated rats [1, 9]: highly significant
- reduction in TTS and PTS compared to control animals (fold) ([1]; click stimulus, 16 mg/kg): at least two-fold
- reduction in TTS (temporary threshold shift) compared with controls ([1]; click stimulus, one day after noise exposure, 16 mg/kg): highly significant reduction
- reduction in PTS (permanent threshold shift) compared with controls ([1]; click stimulus, three weeks after noise exposure, 16 mg/kg): significant reduction
- PTS of a treated animal ([1]; single ebselen-treated animal, control animal 15 dB PTS): 0 dB
- number of outer hair cells lost ([4]; individual rats B and D, two exposures to 110 dB noise, control rats A and C lost 401 and 246): 90 and 56
- hair cell loss in cochlea compared to the control group ([4]; repeated noise exposure): less hair cell loss
- physiologic protection from noise-induced hearing loss and hair cell loss [2]: physiologic protection
- preservation of outer hair cells ([2]; after noise exposure, control animal had almost complete loss of outer hair cells): preservation of most outer hair cells
- difference in ABR threshold shifts between control and treated rats ([5]; 8 kHz stimulus, p<0.01): highly significant
- difference in ABR threshold shifts between control and treated rats ([5]; 16 kHz stimulus, p<0.05): significant
- reduction in TTS compared with controls ([5]; 1 day after repeated noise exposures): significant reduction
- PTS compared to controls ([5]; three weeks after repeated noise exposures): significantly reduced
